This is an account of results in US20200315996A1 (Board of Trustees, Southern Illinois University, priority 2016, published 2020).

The test deals with endometriotic lesions. Put plainly: Mouse model of endometriosis, growth of implanted endometriotic lesions (Study 1). Format: in vivo, mice. Conditions: for lesion weight / lesion volume: 3 weeks; for lesion weight: controls 0.044±0.007 g; for lesion volume: controls 40.1±6.6 mm3; for total weight of lesions: controls 154.0±29.3 mg. From the text:
An experimental mouse model of endometriosis was established adopting procedures described previously with some modification [Han, 2012; Hirata, 2005; Kulak, 2011; Pelch, 2012; Zhao, 2014]. Female, eight week old B6-GFP mice were used as donor mice. These mice are transgenic mice whose cells endogenously express a green fluorescent protein (GFP) which is detectable under fluorescent light. When implanted to a GFP-negative recipient mouse, tissue implants from GFP-positive donor mice can be distinguished from the tissues of the recipient mice. Ectopic GFP-positive lesions were microscopically examined to evaluate the implants for accurate growth and progression. Briefly, the uterine horns were removed from donor mice during the diestrus stage of the reproductive cycle. […] Then, the uterine pieces were maintained in warmed DMEM/F12 medium (#10-090, Corning). […] The recipient mice were selected during the diestrus stage and anesthetized. In each mouse, a longitudinal abdominal incision was made, and uterine pieces from donor mice were sutured to the right or left side of the peritoneal walls of each animal (implanting each 2-mm and 3-mm piece per side) using a 6-0 braided silk suture (# SUT-1073-11, Roboz). Then, the abdominal incision was closed with a 4-0 braided silk suture (# SUT-1073-31, Roboz). […] Uterine tissue pieces of B6-GFP mice (donor) were implanted into the peritoneal walls of recipient mice. […] The lesion volume was calculated according to the formula (L×W^2), where L is length and W is width [[…], 2007].

In the case of `O=C(Nc1ccc([N+](=O)[O-])cc1Cl)c1cc(Cl)ccc1O` [niclosamide, 5-chloro-N-(2-chloro-4-nitrophenyl)-2-hydroxybenzamide], the lesion weight was determined as 0.023 ± 0.004 g (100 mg/kg b.w./day oral) and 0.016 ± 0.003 g (200 mg/kg b.w./day oral). Further, the lesion volume reads like this: (100 mg/kg b.w./day oral, no significant difference) 23.15±5.0 mm3; (200 mg/kg b.w./day oral) 7.4±0.8 mm3. For the same compound, where the note is “oral 50, 100 or 200 mg/kg b.w. vs controls”, the “number of lesions between treatment groups” value is given as “did not differ”. In addition, the “total weight of lesions” value is, setting by setting: (oral niclosamide 50 mg/kg b.w., n=7) 114.9 ± 31.6 mg; (oral niclosamide 100 mg/kg b.w., n=9) 76.2 ± 18.3 mg; (oral niclosamide 200 mg/kg b.w., n=20) 44.9 ± 7.43 mg.
